From patent publication US20240300940A1, “Phenothiazinyl Compounds and Uses” (Prosetta Biosciences, Inc., priority 2023, published 2024)
Where two headings read alike, the source gives them in different places.

Key:
[1] = tested on: NL4-3 Rluc virus; test: microbe, parasite or virus in culture; assay type: cell-based, HIV; conditions: MT-2 cells, MOI 0.02, 96 hours
[2] = tested on: Hennes-20 cells; test: Hennes-20 oncology screen; assay type: cell-based; conditions: 72 h, alamar Blue
Method: To screen compounds for oncology activity Hennes-20 cells were plated at low (500 cells/well) versus high (15,000 cells/well) densities and treated with DMSO (vehicle) or dose-titration of compounds. The rationale for this screen is that an intrinsically toxic compound should kill cells regardless of density, including in Hennes-20 cells. However, a compound that selectively triggers the arrest of proliferation will inhibit cell growth when plated at a low density will appear cytotoxic due to inhibition of cell growth when plated at a low density but will appear non-toxic to cells plated at a high density where the cells are approaching confluence and the readout detected by a cell viability assay is already close to the maximum.
To conduct the Hennes-20 screen, two 96 well plates were seeded with Hennes 20 cells in parallel where one was plated at a density of 500 cells/well and the other was plated at a density of 15,000 cells/well. 90 uL of minimum essential media was added to each well and plates were placed in a 37 degrees Celsius incubator for 24 hours. The next day, 10 ul of media containing dilutions of compound in DMSO were added to each plate. Six wells on each plate received 10 ul of media containing only DMSO. Each well was gently mixed 5 times with a 100 ul pipette. Plates were incubated at 37 degrees Celsius for 72 hours and then 10 uL of alamar Blue was added to each well. Wells were mixed 5 times then incubated at 37 degrees Celsius for […]. Plates were then read at 530/590.
The rationale for the screen is as follows: Hennes-20 cells lack endogenous apoptosis. Cells plated at low density will proliferate and approach confluence in 72 hrs. A drug that arrests proliferation may have its proliferation blocking effect masked by the triggering of endogenous apoptosis. However, in the Hennes line, lacking endogenous apoptosis, such an arrest is manifest as a dose-dependent maintenance at low cell density. Since the high-density cells are plated close to confluence, the difference between Alamar Blue cell survival readings after 72 hrs reflects the ability of the drug to block proliferation in the low density-plated cells. In the high density-plated cells any diminution of Alamar Blue readout vs vehicle control is due to intrinsic toxicity, not proliferation arrest, since cells were already at confluence. Thus, a compound that appears toxic (low Alamar Blue readings after 72 hrs) on the low-density plate, but which appears non-toxic (high Alamar Blue readings after 72 hrs) on the high-density plate, must be arresting proliferation, since intrinsic compound toxicity should be observed at both low and high cell densities, not selectively on the low-density plate.

[3] = tested on: E. coli ATCC25922; test: MIC assay, serial dilution; conditions: Escherichia coli
[4] = tested on: VACV-LUC virus; test: microbe, parasite or virus in culture; assay type: cell-based; conditions: Orthopoxvirus vaccinia, HeLa, 2 h
[5] = tested on: C. albicans ATCC 24433; test: Antifungal MIC assay; conditions: Candida albicans, ATCC24433
[6] = tested on: S. aureus ATCC25923; test: MIC assay, serial dilution; conditions: Staphylococcus aureus
[7] = tested on: A. baumannii ATCC19606; test: MIC assay, serial dilution; conditions: Acinetobacter baumannii
[8] = Human immunodeficiency virus 1, NL43, MT2, 96 h
[9] = ATCC25922, read-out: Anti-bacterial Activity (E. coli MIC (uM)), E. coli, Table 5

Row | SMILES | EC50 [1, 8] [µM] | EC50 [2] [µM] | MIC [3, 9] [µM] | EC50 [4] [µM] | EC50 [1] [µM] | MIC [5] [µM] | MIC [6] [µg/mL] | MIC ([3]; ATCC25922, E. coli ATCC25922) [µg/mL] | MIC [7] [µg/mL]
1 | CCc1cc(N2CCCNCC2)cc2[s+]c3cc(N4CCCNCC4)cc(C)c3nc12 [Compound 16] | 4.8 |  |  |  |  |  |  |  | 
2 | FC1(F)CCN(c2ccc3nc4ccc(N5CCC(F)(F)C5)cc4[s+]c3c2)C1 [Compound 53] |  | > 12.5 | 12.5 |  |  |  |  |  | 
3 | CCc1cc(N2CCCC2)cc2[s+]c3cc(N4CCC(C)C4)cc(C)c3nc12 (stereo not shown) [Compound 57] | 17 |  | 12.5 |  |  |  |  |  | 
4 | Cc1cc(C(C)C)cc2[s+]c3cc(N(C)C)cc(C)c3nc12 [Compound 59] |  | < 0.5 |  | 0.56 |  |  |  |  | 
5 | c1cc2nc3ccc(N4CCCCC4)cc3[s+]c2cc1N1CCCCC1 [Compound 62] |  | < 0.5 | 6.3 |  |  |  |  |  | 
6 | CC(C)(C)c1cc(N2CCCC2)cc2[s+]c3cc(N4CCCC4)ccc3nc12 [Compound 65] |  | < 0.5 | 3.1 |  |  |  |  |  | 
7 | CN(C)c1ccc2nc3c(C(C)(C)C)cc(N(C)C)cc3[s+]c2c1 [Compound 66] |  | < 0.5 |  | 1.67 |  |  |  |  | 
8 | CCc1cc(N2CCCC2)cc2[s+]c3cc(N4CCOCC4)cc(CC)c3nc12 [Compound 72] |  | < 12.5 | 25 |  |  |  |  |  | 
9 | CCc1cc(N(C)C)cc2[s+]c3cc(N4CCCN(C(=O)OC(C)(C)C)CC4)cc(CC)c3nc12 [Compound 74] |  | < 0.5 | 6.3 |  |  |  |  |  | 
10 | CCc1cc(N(CC)CC)cc2[s+]c3cc(N(CC)CC)cc(CC)c3nc12 [Compound 80] |  | < 2.5 | 25 |  |  |  |  |  | 
11 | CCc1cc(N(C)C)cc2[s+]c3cc(N4CCCNCC4)cc(CC)c3nc12 [Compound 87] |  |  |  |  | 10 |  |  |  | 
12 | CCc1cc(N2CCNCC2)cc2[s+]c3cc(N4CCNCC4)cc(C)c3nc12 [Compound 92] | 4.3 | > 12.5 |  |  |  |  |  |  | 
13 | Cc1cc(N2CCOCC2)cc2[s+]c3cc(N4CCOCC4)cc(C)c3nc12 [Compound 93] |  | < 12.5 | 100 |  |  |  |  |  | 
14 | CCc1cc(N2CCOCC2)cc2[s+]c3cc(N4CCOCC4)cc(C)c3nc12 [Compound 97] | 0.23 |  | 25 |  |  |  |  |  | 
15 | CCc1cc(N2CCC(N(C)C)CC2)cc2[s+]c3cc(N4CCC(N(C)C)CC4)cc(C)c3nc12 [Compound 98] | 38 |  |  |  |  |  |  |  | 
16 | CCc1cc(N2CCSCC2)cc2[s+]c3cc(N4CCSCC4)cc(C)c3nc12 [Compound 99] | 26 |  | 6.3 |  |  |  |  |  | 
17 | CCc1cc(N2CCC(N)CC2)cc2[s+]c3cc(N4CCCCC4)cc(C)c3nc12 [Compound 100] | 33 |  | 25 |  |  |  |  |  | 
18 | CC(C)(C)OC(=O)NC1C2CN(c3cc(N4CCCC4)cc4[s+]c5cc(N6CCCC6)ccc5nc34)CC21 (stereo not shown) [Compound 111] |  |  |  |  |  | 1.6 |  |  | 
19 | COC(=O)C1C2C(CN1c1cc(N3CCCC3)cc3[s+]c4cc(N5CCCC5)ccc4nc13)C2(C)C (stereo not shown) [Compound 116] |  |  |  |  |  |  | 1.6 | 12.5 | 6.25
20 | CCN(CC)c1cc(N2CCCC2)cc2[s+]c3cc(N4CCCC4)ccc3nc12 [Compound 117] |  | 12.5 |  |  |  | 1.6 | 1.6 | 25 | 12.5
21 | c1cc2nc3c(N4CCSC4)cc(N4CCCC4)cc3[s+]c2cc1N1CCCC1 [Compound 118] |  | 12.5 |  |  |  | 3.1 | 6.25 | > 100 | > 100
22 | c1cc2nc3c(N4CCCNCC4)cc(N4CCCC4)cc3[s+]c2cc1N1CCCC1 [Compound 119] |  | 12.5 |  |  |  | 6.25 | 25 | 100 | > 100

Row | SMILES | EC50 [1, 8] [µM] | EC50 [2] [µM] | MIC [3, 9] [µM] | EC50 [4] [µM] | EC50 [1] [µM] | MIC [5] [µM] | MIC [6] [µg/mL] | MIC ([3]; ATCC25922, E. coli ATCC25922) [µg/mL] | MIC [7] [µg/mL]
23 | c1cc2nc3c(N4CCNCC4)cc(N4CCCC4)cc3[s+]c2cc1N1CCCC1 [Compound 120] |  | 12.5 |  |  |  | 100 | 100 | > 100 | > 100
24 | c1cc2nc3c(N4CCOCC4)cc(N4CCCC4)cc3[s+]c2cc1N1CCCC1 [Compound 123] |  |  |  |  |  | 3.1 | 6.25 | > 100 | 100
25 | CC1(C)C2CN(c3ccc4nc5c(N6CC7C(C6)C7(C)C)cc(N6CCCC6)cc5[s+]c4c3)CC21 (stereo not shown) [Compound 124] |  |  |  |  |  | 1.6 | 6.25 | 100 | 12.5
26 | CC1(C)C2CN(c3cc(N4CC5C(C4)C5(C)C)c4nc5ccc(N6CCCC6)cc5[s+]c4c3)CC21 (stereo not shown) [Compound 125] |  | 0.1 |  |  |  | 6.25 | 12.5 | > 100 | > 100
27 | CC(C)(C)c1cc(N2CC3C(C2)C3(C)C)cc2[s+]c3cc(N4CC5C(C4)C5(C)C)cc(N4CC5C(C4)C5(C)C)c3nc12 (stereo not shown) [Compound 126] |  | 0.5 |  |  |  | 12.5 | 100 | > 100 | > 100
28 | CC1(C)C2CN(c3ccc4nc5ccc(N6CC7C(C6C(=O)O)C7(C)C)cc5[s+]c4c3)C(C(=O)O)C21 (stereo not shown) [Compound 127] |  |  |  |  |  | > 100 | > 100 | > 100 | > 100
29 | COC(=O)C1C2C(CN1c1ccc3nc4ccc(N5CC6C(C5C(=O)OC)C6(C)C)cc4[s+]c3c1)C2(C)C (stereo not shown) [Compound 129] |  |  |  |  |  | > 100 | 12.5 | > 100 | > 100
30 | CC(C)(C)c1cc(N2CCCC2)cc2[s+]c3cc(N4CCCC4)cc(N4CCCC4)c3nc12 [Compound 130] |  |  |  |  |  | 6.25 | 6.25 | 12.5 | 6.25
31 | CC(C)(C)c1cc(N2CCCC2)cc2[s+]c3cc(N4CCCC4)cc(Br)c3nc12 [Compound 132] |  |  |  |  |  | 12.5 | 6.25 | 100 | 12.5
32 | CC(C)(C)c1cc([N+]2([O-])CCCC2)cc2[s+]c3cc(N4CCCC4)ccc3nc12 [Compound 133] |  |  |  |  |  | 100 | 12.5 | > 100 | 100
33 | c1cc2nc3ccc(N4CC5CNCC5C4)cc3[s+]c2cc1N1CC2CNCC2C1 (stereo not shown) [Compound 134] |  | 12.5 |  |  |  | > 100 | > 100 | > 100 | > 100
34 | C1=CCN(c2ccc3nc4ccc(N5CC=CC5)cc4[s+]c3c2)C1 [Compound 136] |  |  |  |  |  | > 100 | 25 | > 100 | > 100
35 | c1cc2nc3ccc(N4CCNC4)cc3[s+]c2cc1N1CCNC1 [Compound 137] |  |  |  |  |  | > 100 | > 100 | > 100 | > 100
36 | c1cc2nc3ccc(N4CCCNCC4)cc3[s+]c2cc1N1CCCNCC1 [Compound 139] |  |  |  |  |  | > 100 | > 100 | > 100 | > 100
37 | CC(C)(C)OC(=O)N1CCCN(c2ccc3nc4ccc(N5CCCN(C(=O)OC(C)(C)C)CC5)cc4[s+]c3c2)CC1 [Compound 140] |  |  |  |  |  | > 100 | > 100 | > 100 | > 100
38 | c1cc2nc3ccc(N4CCCOCC4)cc3[s+]c2cc1N1CCCOCC1 [Compound 141] |  |  |  |  |  | > 100 | 100 | > 100 | > 100
39 | c1cc2nc3ccc(N4CCSCC4)cc3[s+]c2cc1N1CCSCC1 [Compound 143] |  |  |  |  |  | > 100 |  |  | 
40 | c1cc2nc3c(N4CCCC4)cc(N4CCCC4)cc3[s+]c2cc1N1C2CCCC1CC2 [Compound 145] |  |  |  |  |  | 1.6 | 1.6 | 25 | 6.25
41 | c1cc2nc3ccc(N4C5CCCC4CC5)cc3[s+]c2cc1N1C2CCCC1CC2 [Compound 146] |  |  |  |  |  | 6.25 | 3.1 | > 100 | 25
42 | CC1(C)C2CN(c3ccc4nc5ccc(N6C7CCCC6CC7)cc5[s+]c4c3)CC21 (stereo not shown) [Compound 147] |  |  |  |  |  | 3.1 | 1.6 | 100 | 25
43 | c1ccc2c(c1)Sc1ccccc1N2c1ccc2nc3ccc(N4C5CCCC4CC5)cc3[s+]c2c1 [Compound 148] |  |  |  |  |  | 100 | 25 | > 100 | 100
44 | CC1(C)C2CN(c3ccc4nc5ccc(N6CCCC6)cc5[s+]c4c3)CC21 (stereo not shown) [Compound 150] |  |  |  |  |  | 1.6 | 1.6 | 100 | 25
